Experimental data reported in patent US10973788B2, “Treatment of cancer with specific RXR agonists” (Io Therapeutics, Inc., priority 2005, dated 2021).

Key:
[1] = system: NSCLC; conditions: pivotal Phase III; cited from earlier work
[2] = target: RXR β (Homo sapiens, UniProt P28702); assay: cell-based; conditions: read-out: RXR EC90 β
Procedure: (§1) RXR EC90:RAR EC10 ratio is calculated by taking the inverse of the RXR EC90 α, β and γ values (nM) divided by the corresponding inverse of the RAR EC10 α, β and γ values (nM). For example, the RXR EC90:RAR EC10 ratio is determined by dividing RAR EC10 by RXR EC90 for α, β and γ. Thus, a value is obtained for all three receptors, referred to herein as (RXR EC90:RAR EC10 ratio)α, (RXR EC90:RAR EC10 ratio)β and (RXR EC90:RAR EC10 ratio)γ for α β and γ, respectively. For example, (RXR EC90:RAR EC10 ratio), is determined by dividing RAR EC10α by RXRα EC90. The mean RXR EC90:RAR EC10 ratio is the average of all three values. An example is provided below in Tables 1A and 1B.

[3] = target: RAR α (Homo sapiens, UniProt P10276)
RAR α, sequence (P10276 whole entry): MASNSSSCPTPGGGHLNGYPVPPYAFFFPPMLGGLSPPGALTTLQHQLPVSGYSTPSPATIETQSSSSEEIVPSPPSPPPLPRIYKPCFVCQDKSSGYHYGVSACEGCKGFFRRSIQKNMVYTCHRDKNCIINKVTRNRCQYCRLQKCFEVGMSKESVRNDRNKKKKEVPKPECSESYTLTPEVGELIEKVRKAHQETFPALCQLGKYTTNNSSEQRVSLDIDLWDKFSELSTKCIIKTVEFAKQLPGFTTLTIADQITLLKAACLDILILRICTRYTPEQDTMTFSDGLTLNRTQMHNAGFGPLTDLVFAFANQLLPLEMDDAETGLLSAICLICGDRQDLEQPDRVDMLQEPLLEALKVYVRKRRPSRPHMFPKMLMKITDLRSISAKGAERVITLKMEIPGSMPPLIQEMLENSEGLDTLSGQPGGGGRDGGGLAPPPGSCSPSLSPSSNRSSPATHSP
Procedure: as §1

[4] = target: RAR γ (Homo sapiens, UniProt P13631)
Procedure: as §1

[5] = target: RAR β (Homo sapiens, UniProt P10826)
Procedure: as §1

[6] = system: RXR; assay: RXR pan-agonist potency; type: cell-based
[7] = system: cell lines derived from a variety of tumor types; assay: Tumor growth inhibition in cell lines; type: cell-based
[8] = Rat micronucleus genotoxicity assay; type: in vivo
[9] = Repeated oral dose study for 4 weeks followed by recovery, rats; type: in vivo; conditions: repeated oral dose 4 weeks
[10] = Ames genotoxicity test
[11] = system: human H292 NSCLC tumors; assay: Animal models of lung cancer (H292 NSCLC xenograft); type: in vivo, nude mice
Procedure: (§2) Nude mice were randomized into 4 groups of 10 animals each based on body weight and xenografted subcutaneously in the right flank with H292 cells (2×10^6 cells). Drug treatment was started immediately after xenografting and continued for 35 days (5 animals of each group) or 55 days (remaining 5 animals). […] Tumor sizes were measured periodically for 35 days (FIG. 1A). Animals #1-5 of each group were sacrificed after 35 days of treatment and gastrocnemus muscles were determined (FIG. 10). The body weights and overall appearance of animals #6 through #10 from each group were followed for an extended period (FIG. 1B and FIG. 1D). To appropriately show the overall health of these animals, pictures were taken from their tumor-free left flank on day 55 (FIG. 1D).

[12] = system: breast cancer; assay: Animal models of breast cancer; type: in vivo
[13] = system: mouse lymphoma TK; assay: Mouse lymphoma TK genotoxicity assay; type: cell-based
[14] = system: cancer-induced cachexia; assay: Models of cancer-induced cachexia; type: in vivo
Procedure: as §2

[15] = Repeated oral dose study for 4 weeks followed by recovery, dogs; type: in vivo; conditions: repeated oral dose 4 weeks

RXR β, sequence (P28702 whole entry): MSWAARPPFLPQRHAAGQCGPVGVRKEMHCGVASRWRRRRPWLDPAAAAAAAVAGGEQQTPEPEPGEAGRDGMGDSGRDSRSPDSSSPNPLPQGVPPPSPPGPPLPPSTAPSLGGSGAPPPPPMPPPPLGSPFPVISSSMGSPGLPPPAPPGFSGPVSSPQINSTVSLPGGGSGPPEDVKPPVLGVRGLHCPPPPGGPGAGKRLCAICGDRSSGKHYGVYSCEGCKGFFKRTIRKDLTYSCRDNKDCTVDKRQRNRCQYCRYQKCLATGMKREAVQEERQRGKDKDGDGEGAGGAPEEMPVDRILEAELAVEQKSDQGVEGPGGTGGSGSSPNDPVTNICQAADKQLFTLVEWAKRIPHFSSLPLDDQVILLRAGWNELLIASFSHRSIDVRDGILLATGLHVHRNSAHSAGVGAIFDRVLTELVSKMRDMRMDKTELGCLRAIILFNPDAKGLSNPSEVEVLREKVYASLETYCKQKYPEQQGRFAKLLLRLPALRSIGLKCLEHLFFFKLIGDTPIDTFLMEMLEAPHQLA

Structure (SMILES) | survival [1] | EC90 [2] [nM] | RAR EC10 α [3] [nM] | RAR EC10 γ [4] [nM] | RAR EC10 β [5] [nM] | EC50 [6] [nM] | tumor growth inhibition [7] | genotoxicity [8] | severe toxic dose [9] [mg/m^2/d] | genotoxicity [10] | tumor growth inhibition [11] | tumor growth inhibition [12] | genotoxicity [13] | body weight [14] | food consumption [14] | muscle and adipose tissue [14] | survival [14] | severe toxic dose [15]
C=C(c1ccc(C(=O)O)cc1)c1cc2c(cc1C)C(C)(C)CCC2(C)C [TARGRETIN ®, bexarotene] | did not show increased survival | 100 |  |  |  |  |  |  |  |  |  |  |  |  |  |  |  | 
CC(/C=C/[C@@H]1C[C@]1(C)c1ccc2c(c1)C(C)(C)CCC2(C)C)=C\C(=O)O [VTP 194204, 3,7-dimethyl-6(S),7(S)-methano,7-[1,1,4,4-tetramethyl-1,2,3,4-tetrahydron-aphth-7-yl]2(E), 4(E) heptadienoic acid] |  |  | 300 | […] | […] | […] | tumor growth inhibitory effects | No genotoxicity | […] | No genotoxicity | tumor growth inhibitory effects | tumor growth inhibitory effects | No genotoxicity | maintained body weight | improved food consumption | prevented loss of muscle and adipose tissue | prolonged survival | […]
